The inhibition is the change of the read-out against control, counted positive when it falls.

The target of this test is T1, nitric oxide synthase (Rattus norvegicus, UniProt P29476).
T1 construct: the supernatant was then decanted and frozen in portions; from tissue; host or cells: rat cerebellum, homogenate supernatant after 20,000 g
Put plainly: HTS NO synthase assay. In kind it is biochemical. As to conditions: 10 μM test compound; enzyme from rat cerebellum; [3H]arginine substrate; read-out: Inhibition of nitric oxide synthase (10 μM) in per cent. As to the method: This assay allows the determination of the percentage inhibition of NO synthase by a compound of formula I employed according to the invention by measuring the NO synthase activity under the action of the compound. In this procedure, NO synthase is mixed together with radioactively labelled arginine and the particular compound of formula I under suitable conditions. After interruption of the NO formation reaction at a given point in time, the amount of unreacted arginine is determined directly or indirectly. Comparison of this amount with the amount of arginine remaining from the mixture of NO synthase and arginine free of the test compound of formula I and under otherwise identical conditions gives the percentage inhibition of NO synthase by the test compound. This assay can be carried out as follows:
(a) incubation of NO synthase with labelled arginine as the substrate in a reaction vessel,
(b) separation of the labelled arginine from labelled citrulline formed as the product of the enzymatic reaction at a point in time at which the concentration of citrulline is increasing, and
(c) measurement of the amount of arginine separated in each case.
The separation is carried out through a filter plate membrane.
In this HTS NO synthase assay, radioactive arginine is used as the substrate. The assay volume can be chosen in the range between 25 μl and 250 μl, depending on the nature of the microtiter plate (MTP). Cofactors and coenzymes are added, depending on the enzyme source used. The incubation of the batches in this microtiter plate (assay MTP) according to step (a) is carried out at room temperature for between 5 and 60 minutes, depending on the enzyme activity (units) used. At the end of the incubation (step (a)), the plate is placed in a cell harvester equipped with an MTP which has a cation exchanger membrane as the filter base (filter MTP). All the batches of the assay MTP are transferred into this filter MTP and filtered with suction over a cation exchanger filter plate, i.e., a filter paper loaded with phosphate groups. The filter MTP is then washed with buffer or water. Using this procedure, the arginine substrate which remains is bound to the cation exchanger, while the radioactive citrulline formed enzymatically is washed out quantitatively. After drying of the filter MTP and addition of scintillation liquid, the bound arginine can be counted on a scintillation counter. An NO synthase reaction which has not been inhibited is reflected in a low radioactivity. An inhibited enzyme reaction means that the radioactive arginine has not been reacted. That is to say, a high radioactivity is found on the filter. […]
The plate was then dried for 1 hour at 60° C. in a drying cabinet. […] After a waiting time of 1 hour, the plate was measured on a β-counter.
As for `COc1ccc(-c2cn3ccc(C)cc3n2)cc1` [Example 1, 2-(4-Methoxy-phenyl)-7-methyl-imidazo[1,2-a]pyridine], the inhibition at 10 µM turned out to be 39%.

Consider `Cc1ccn2cc(C)nc2c1` [Example 2, 2,7-Dimethyl-imidazo[1,2-a]pyridine], for which the inhibition at 10 µM is 68%.

Consider `Cc1ccn2ccnc2c1` [Example 3, 7-Methyl-imidazo[1,2-a]pyridine], for which the inhibition at 10 µM came to 53%.

For the compound `Cc1ccn2cc(C(C)(C)C)nc2c1` [Example 4, 2-tert-Butyl-7-methyl-imidazo[1,2-a]pyridine], the inhibition at 10 µM was found to be 89%.

The record behind these values is US20040142961A1, “Utilization of substituted imidazo[1,2-a]-pyridine compounds in pharmaceutical formulations” (priority 2001, published 2004).
